# Laboratory results taken from US20210078988A1, “MODULATORS OF INDOLEAMINE 2,3-DIOXYGENASE” (GLAXOSMITHKLINE INTELLECTUAL PROPERTY DEVELOPMENT LIMITED, priority 2017, published 2021).
# Biological target: T1, indoleamine 2, 3-dioxygenase (IDO1) (Homo sapiens, UniProt P14902)
# T1 construct: human peripheral blood mononuclear cells (PBMC) (PB003F; host or cells: human PBMC stimulated with IFN-gamma and LPS
# Experiment: PBMC IDO1 assay (kynurenine detection via mass spectrometry)
# Format: cell-based
# Conditions: human PBMC stimulated with IFN-γ and LPS, 2 days, kynurenine by mass spectrometry; read-out: IDO1 PBMC pIC50 (converted)
# Procedure: Compounds of the present invention were tested via high-throughput cellular assays utilizing detection of kynurenine via mass spectrometry and cytotoxicity as end-points. For the mass spectrometry and cytotoxicity assays, human peripheral blood mononuclear cells (PBMC) (PB003F; AIICells®, Alameda, Calif.) were stimulated with human interferon-γ (IFN-γ) (Sigma-Aldrich Corporation, St. Louis, Mo.) and lipopolysaccharide from Salmonella minnesota (LPS) (Invivogen, San Diego, Calif.) to induce the expression of indoleamine 2, 3-dioxygenase (IDO1). Compounds with IDO1 inhibitory properties decreased the amount of kynurenine produced by the cells via the tryptophan catabolic pathway. Cellular toxicity due to the effect of compound treatment was measured using CellTiter-Glo® reagent (CTG) (Promega Corporation, Madison, Wis.), which is based on luminescent detection of ATP, an indicator of metabolically active cells.
# In preparation for the assays, test compounds were serially diluted 3-fold in DMSO from a typical top concentration of 5 mM and plated at 0.5 μL in 384-well, polystyrene, clear bottom, tissue culture treated plates with lids (Greiner Bio-One, Kremsmunster, Austria) to generate 11-point dose response curves. Low control wells (0% kynurenine or 100% cytotoxicity) contained either 0.5 μL of DMSO in the presence of unstimulated (-IFN-γ/-LPS) PBMCs for the mass spectrometry assay or 0.5 μL of DMSO in the absence of cells for the cytotoxicity assay, and high control wells (100% kynurenine or 0% cytotoxicity) contained 0.5 μL of DMSO in the presence of stimulated (+IFN-γ/+LPS) PBMCs for both the mass spectrometry and cytotoxicity assays.
# Frozen stocks of PBMCs were washed and recovered in RPMI 1640 medium (Thermo Fisher Scientific, Inc., Waltham, Mass.) supplemented with 10% v/v heat-inactivated fetal bovine serum (FBS) (Thermo Fisher Scientific, Inc., Waltham, Mass.), and 1× penicillin-streptomycin antibiotic solution (Thermo Fisher Scientific, Inc., Waltham, Mass.). The cells were diluted to 1,000,000 cells/mL in the supplemented RPMI 1640 medium. 50 μL of either the cell suspension, for the mass spectrometry assay, or medium alone, for the cytotoxicity assay, were added to the low control wells, on the previously prepared 384-well compound plates, resulting in 50,000 cells/well or 0 cells/well respectively. IFN-γ and LPS were added to the remaining cell suspension at final concentrations of 100 ng/ml and 50 ng/ml respectively, and 50 μL of the stimulated cells were added to all remaining wells on the 384-well compound plates. The plates, with lids, were then placed in a 37° C., 5% CO2 humidified incubator for 2 days.
# Following incubation, the 384-well plates were removed from the incubator and allowed to equilibrate to room temperature for 30 minutes. For the cytotoxicity assay, CellTiter-Glo® was prepared according to the manufacturer's instructions, and 40 μL were added to each plate well. After a twenty minute incubation at room temperature, luminescence was read on an EnVision® Multilabel Reader (PerkinElmer Inc., Waltham, Mass.). For the mass spectrometry assay, 10 μL of supernatant from each well of the compound-treated plates were added to 40 μL of acetonitrile, containing 10 μM of an internal standard for normalization, in 384-well, polypropylene, V-bottom plates (Greiner Bio-One, Kremsmunster, Austria) to extract the organic analytes. Following centrifugation at 2000 rpm for 10 minutes, 10 μL from each well of the acetonitrile extraction plates were added to 90 μL of sterile, distilled H2O in 384-well, polypropylene, V-bottom plates for analysis of kynurenine and the internal standard on the RapidFire 300 (Agilent Technologies, Santa Clara, Calif.) and 4000 QTRAP MS (SCIEX, Framingham, Mass.). MS data were integrated using Agilent Technologies' RapidFire Integrator software, and data were normalized for analysis as a ratio of kynurenine to the internal standard. […]
# T1 sequence (P14902 whole entry): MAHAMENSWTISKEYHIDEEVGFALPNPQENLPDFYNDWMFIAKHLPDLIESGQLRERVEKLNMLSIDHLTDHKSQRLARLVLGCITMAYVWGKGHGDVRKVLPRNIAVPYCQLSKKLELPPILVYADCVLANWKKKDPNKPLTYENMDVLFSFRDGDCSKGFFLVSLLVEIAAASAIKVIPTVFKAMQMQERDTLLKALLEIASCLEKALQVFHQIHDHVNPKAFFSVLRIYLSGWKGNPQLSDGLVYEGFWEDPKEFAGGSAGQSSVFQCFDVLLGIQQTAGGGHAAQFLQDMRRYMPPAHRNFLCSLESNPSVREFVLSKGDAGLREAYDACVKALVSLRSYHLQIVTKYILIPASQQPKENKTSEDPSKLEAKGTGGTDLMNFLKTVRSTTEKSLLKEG
row,IC50 [nM],Compound
1,12.6,"CC(C)(C)OC(=O)N1CCC(CC(NC(=O)c2ccc(F)s2)c2ccccc2)CC1 (centres unmarked) [Example 58, tert-butyl 4-(2-(5-fluorothiophene-2-carboxamido)-2-phenylethyl)piperidine-1-carboxylate]"
2,12.6,"Cc1ccc(C(=O)NC(CC2CCN(C(=O)OC(C)(C)C)CC2)C2CCCC2)s1 (centres unmarked) [Example 59, tert-butyl 4-(2-cyclopentyl-2-(5-methylthiophene-2-carboxamido)ethyl)piperidine-1-carboxylate]"
3,12.6,"CC(C)(C)OC(=O)N1CCC(C[C@H](NC(=O)c2ccc(Br)cc2)C2CC2)CC1 [Example 63, (S)-tert-butyl 4-(2-(4-bromobenzamido)-2-cyclopropylethyl)piperidine-1-carboxylate]"
4,15.8,"CC(C)(C)OC(=O)N1CCC(CC(NC(=O)c2ccc(Cl)cc2)c2ccccc2)CC1 (centres unmarked) [Example 68, tert-butyl 4-(2-(4-chlorobenzamido)-2-phenylethyl)piperidine-1-carboxylate]"
5,15.8,"CC(C)(C)OC(=O)N1CCC(CC(NC(=O)c2ccc(Br)c(F)c2)c2ccccc2)CC1 (centres unmarked) [Example 71, tert-butyl 4-(2-(4-bromo-3-fluorobenzamido)-2-phenylethyl)piperidine-1-carboxylate]"
6,15.8,"CC(C)(C)OC(=O)N1CCC(CC(NC(=O)c2ccc(I)cc2)c2ccccc2)CC1 (centres unmarked) [Example 72, tert-butyl 4-(2-(4-iodobenzamido)-2-phenylethyl)piperidine-1-carboxylate]"
7,15.8,"CC(C)CC(CC1CCN(C(=O)OC(C)(C)C)CC1)NC(=O)c1ccc(Cl)cc1 (centres unmarked) [Example 75, tert-butyl 4-(2-(4-chlorobenzamido)-4-methylpentyl)piperidine-1-carboxylate]"
8,15.8,"CC(C)CC(CC1CCN(C(=O)OC(C)(C)C)CC1)NC(=O)c1ccc(F)cc1 (centres unmarked) [Example 76, tert-butyl 4-(2-(4-fluorobenzamido)-4-methylpentyl)piperidine-1-carboxylate]"
9,15.8,"O=C(NC(CC1CCN(C(=O)OC2CC2)CC1)c1ccccc1)c1ccc(Cl)cc1 (centres unmarked) [Example 77, cyclopropyl 4-(2-(4-chlorobenzamido)-2-phenylethyl)piperidine-1-carboxylate]"
10,15.8,"CC(C)CC(CC1CCN(C(=O)OC(C)(C)C)CC1)NC(=O)c1ccc(F)s1 (centres unmarked) [Example 79, tert-butyl 4-(2-(5-fluorothiophene-2-carboxamido)-4-methylpentyl)piperidine-1-carboxylate]"
11,15.8,"Cc1ccc(C(=O)NC(CC2CCN(C(=O)OC(C)(C)C)CC2)C2CCCCC2)s1 (centres unmarked) [Example 80, tert-butyl 4-(2-cyclohexyl-2-(5-methylthiophene-2-carboxamido)ethyl)piperidine-1-carboxylate]"

# The next lines start with the compound.
row,Compound,IC50 [nM]
1,"COc1ccc(C(CC2CCN(C(=O)OC(C)C)CC2)NC(=O)c2ccc(F)cc2)cn1 (centres unmarked) [Example 55, isopropyl 4-(2-(4-fluorobenzamido)-2-(6-methoxypyridin-3-yl)ethyl)piperidine-1-carboxylate]",12.6
2,"COc1ccc(C(CC2CCN(C(=O)OCC(C)C)CC2)NC(=O)c2ccc(F)cc2)cn1 (centres unmarked) [Example 56, isobutyl 4-(2-(4-fluorobenzamido)-2-(6-methoxypyridin-3-yl)ethyl)piperidine-1-carboxylate]",12.6
3,"CC(C)(C)OC(=O)N1CCC(CC(NC(=O)c2ccc(Br)cc2)c2ccccc2)CC1 (centres unmarked) [Example 57, tert-butyl 4-(2-(4-bromobenzamido)-2-phenylethyl)piperidine-1-carboxylate]",12.6
4,"CCc1ccc(C(=O)NC(CC(C)C)CC2CCN(C(=O)OC(C)(C)C)CC2)s1 (centres unmarked) [Example 60, tert-butyl 4-(2-(5-ethylthiophene-2-carboxamido)-4-methylpentyl)piperidine-1-carboxylate]",12.6
5,"O=C(NC(CC1CCN(C(=O)OC2CCC2)CC1)c1ccccc1)c1ccc(Cl)cc1 (centres unmarked) [Example 61, cyclobutyl 4-(2-(4-chlorobenzamido)-2-phenylethyl)piperidine-1-carboxylate]",12.6
6,"C#CCOC(=O)N1CCC(CC(NC(=O)c2ccc(Cl)cc2)c2ccccc2)CC1 (centres unmarked) [Example 62, prop-2-yn-1-yl 4-(2-(4-chlorobenzamido)-2-phenylethyl)piperidine-1-carboxylate]",12.6
7,"CC(C)(C)OC(=O)N1CCC(CC(NC(=O)c2ccc(Cl)s2)C2CCCCC2)CC1 (centres unmarked) [Example 64, tert-butyl 4-(2-(5-chlorothiophene-2-carboxamido)-2-cyclohexylethyl)piperidine-1-carboxylate]",12.6
8,"CC(C)(C)OC(=O)N1CCC(C[C@H](NC(=O)c2ccc(Cl)cc2)c2ccccc2)CC1 [Example 65, (S)-tert-butyl 4-(2-(4-chlorobenzamido)-2-phenylethyl)piperidine-1-carboxylate]",12.6
9,"CCOC(=O)N1CCC(C[C@H](NC(=O)c2ccc(CC)s2)c2ccccc2)CC1 [Example 66, (S)-ethyl 4-(2-(5-ethylthiophene-2-carboxamido)-2-phenylethyl)piperidine-1-carboxylate]",12.6
10,"CC(C)CC(CC1CCN(C(=O)Oc2ccccc2)CC1)NC(=O)c1ccc(Cl)cc1 (centres unmarked) [Example 67, phenyl 4-(2-(4-chlorobenzamido)-4-methylpentyl)piperidine-1-carboxylate]",12.6
11,"Cc1ccc(C(=O)NC(CC2CCN(C(=O)OC(C)(C)C)CC2)c2ccccc2)s1 (centres unmarked) [Example 69, tert-butyl 4-(2-(5-methylthiophene-2-carboxamido)-2-phenylethyl)piperidine-1-carboxylate]",15.8
12,"COc1ccc([C@@H](CC2CCN(C(=O)OC(C)(C)C)CC2)NC(=O)c2ccc(Cl)s2)cn1 [Example 70, (R)-tert-butyl 4-(2-(5-chlorothiophene-2-carboxamido)-2-(6-methoxypyridin-3-yl)ethyl)piperidine-1-carboxylate]",15.8
13,"CN(C)c1nnc(C(CC2CCN(C(=O)OC(C)(C)C)CC2)NC(=O)c2ccc(Cl)s2)o1 (centres unmarked) [Example 73, tert-butyl 4-(2-(5-chlorothiophene-2-carboxamido)-2-(5-(dimethylamino)-1,3,4-oxadiazol-2-yl)ethyl)piperidine-1-carboxylate]",15.8
14,"CC(C)C(CC1CCN(C(=O)OC(C)(C)C)CC1)NC(=O)c1ccc(Br)cc1 (centres unmarked) [Example 74, tert-butyl 4-(2-(4-bromobenzamido)-3-methylbutyl)piperidine-1-carboxylate]",15.8
15,"CCc1ccc(C(=O)NC(CC2CCN(C(=O)OC(C)(C)C)CC2)C2CCCC2)s1 (centres unmarked) [Example 78, tert-butyl 4-(2-cyclopentyl-2-(5-ethylthiophene-2-carboxamido)ethyl)piperidine-1-carboxylate]",15.8
16,"CCOC(=O)N1CCC(C[C@H](NC(=O)c2ccc(Cl)cc2)c2ccccc2)CC1 [Example 81, (S)-ethyl 4-(2-(4-chlorobenzamido)-2-phenylethyl)piperidine-1-carboxylate]",15.8
17,"CCN(CCOC)c1nnc(C(CC2CCN(C(=O)OC(C)(C)C)CC2)NC(=O)c2ccc(C)s2)o1 (centres unmarked) [Example 82, tert-butyl 4-(2-(5-(ethyl(2-methoxyethyl)amino)-1,3,4-oxadiazol-2-yl)-2-(5-methylthiophene-2-carboxamido)ethyl)piperidine-1-carboxylate]",15.8
18,"CC(C)(C)OC(=O)N1CCC(C[C@@H](CCNCc2ccccc2)NC(=O)c2ccc(Cl)s2)CC1 [Example 83, (S)-tert-butyl 4-(4-(benzylamino)-2-(5-chlorothiophene-2-carboxamido)butyl)piperidine-1-carboxylate]",15.8
